Data published in US8912184B1, “Therapeutic and diagnostic methods” (Alzheimer's Institute of America, Inc., priority 2010, dated 2014).
Like-named read-outs stand apart in the source and are kept apart here.

Tested on: HCT116 cells
Experiment: Nicotinic Acid Rescue Cytotoxicity Assay, first method: cytotoxicity to HCT116 cells in presence and absence of 10 μM nicotinic acid
Format: cell-based
Settings: Homo sapiens, HCT-116, 72 h
Experimental: Additionally, Nicotinic Acid (NA) rescue of cytotoxicity of Nampt inhibitors was assessed by two distinct methods. In the first method, Nampt1 inhibitor cytotoxicity was evaluated in the presence and absence of exogenous nicotinic acid (NA) at a fixed concentration. […] Twenty four hours after cells were plated, the media was removed and replaced with media containing 10 μM nicotinic acid. Compounds were then immediately added. Cell viability was then assessed at 72 h.
Using the first of the two assays described above, the 90 compounds shown in Table 5, below, were tested for cytotoxicity towards Naprt1-proficient HCT116 cells, and for the ability of NA to block the observed cytotoxicity (or “rescue” the cells from the cytotoxic activity of the tested compound). The compounds listed are referred to by a unique rescue analysis example number (i.e., R1, R2 . . . R90) that is used as a reference number in Table 4, in which the results of the cytotoxicity and rescue assays are presented.

[1] = absence of nicotinic acid, read-out: HCT116 72 h cytotoxicity
[2] = presence of 10 μM nicotinic acid, read-out: HCT116 72 h cytotoxicity with 10 μM Nicotinic Acid

Row | Structure (SMILES) | IC50 [1] [nM] | IC50 [2] [nM]
1 | O=C(NCc1cccnc1)c1ccc(NCc2ccccc2-c2cccc(Cl)c2)cc1 [Example R30, 4-{[(3′-Chlorobiphenyl-2-yl)methyl]amino}-N-(pyridin-3-ylmethyl)benzamide] | 1350 | 29000
2 | O=C(NCc1cccnc1)Nc1ccc(NCc2ccccc2Cl)cc1 [Example R31, 1-{4-[(2-Chlorobenzyl)amino]phenyl}-3-(pyridin-3-ylmethyl)urea] | 1270 | > 50000
3 | O=C(NCc1cccnc1)Nc1ccc(NS(=O)(=O)c2ccccc2)cc1 [Example R32, N-(4-{[(Pyridin-3-ylmethyl)carbamoyl]amino}phenyl)benzene-sulfonamide] | 194 | > 50000
4 | O=C(NCc1cccnc1)Nc1ccc(NS(=O)(=O)c2ccccc2Br)cc1 [Example R33, 2-Bromo-N-(4-{[(pyridin-3-ylmethyl)carbamoyl]amino}phenyl)benzene-sulfonamide] | 4.6 | > 50000
5 | O=C(NCCc1cccnc1)c1ccc(NCc2ccccc2Br)cc1 [Example R34, 4-[(2-Bromobenzyl)amino]-N-[2-(pyridin-3-yl)ethyl]benzamide] | 1160 | > 50000
6 | N#Cc1ccc(NC(=S)NCCCCCCOc2ccc(Cl)cc2)cc1 [Example R35, 1-[6-(4-Chlorophenoxy)hexyl]-3-(4-cyanophenyl)thiourea] | 1530 | 2000
7 | N#C/N=C(\NCCCCCCOc1ccc(Cl)cc1)Nc1ccc(Br)nc1 [Example R36, 1-(6-Bromopyridin-3-yl)-2-[6-(4-chlorophenoxy)hexyl]-3-cyanoguanidine] | 6000 | > 10000
8 | N#C/N=C(\NCCCCCCOc1ccc(Cl)cc1)Nc1ccnc(Cl)c1 [Example R37, 1-[6-(4-Chlorophenoxy)hexyl]-2-(2-chloropyridin-4-yl)-3-cyanoguanidine] | 168 | 5000
9 | Cc1cnccc1N/C(=N/C#N)NCCCCCCOc1ccc(Cl)cc1 [Example R38, 1-[6-(4-Chlorophenoxy)hexyl]-2-cyano-3-(3-methylpyridin-4-yl)guanidine] | 1.4 | > 10000
10 | S=C(NCCCCCCOc1ccc(Cl)cc1)Nc1cccnc1 [Example R39, 1-[6-(4-Chlorophenoxy)hexyl]-3-pyridin-3-ylthiourea] | 1620 | > 10000
11 | N#C/N=C(/NCCCCCCOc1ccc(Cl)cc1)NCc1cccnc1 [Example R40, 1-[6-(4-Chlorophenoxy)hexyl]-2-cyano-3-(pyridin-3-ylmethyl)guanidine] | 1090 | > 10000
12 | O=C(NCCCCCCOc1ccc(Cl)cc1)Nc1ccc(F)c(F)c1 [Example R41, 1-[6-(4-Chlorophenoxy)hexyl]-3-(3,4-difluorophenyl)urea] | 7080 | 6000
13 | CC(C)CCN(Cc1ccccc1Cl)c1ccc(C(=O)NCc2cccnc2)cc1 [Example R42, 4-[(2-Chlorobenzyl)(3-methylbutyl)amino]-N-(pyridin-3-ylmethyl)benzamide] | 387 | > 10000
14 | C/C=C/CN(Cc1ccccc1Cl)c1ccc(C(=O)NCc2cccnc2)cc1 [Example R43, 4-[(2E)-But-2-en-1-yl(2-chlorobenzyl)amino]-N-(pyridin-3-ylmethyl)benzamide] | 98.6 | > 10000
15 | CC(C)=CCN(Cc1ccccc1Cl)c1ccc(C(=O)NCc2cccnc2)cc1 [Example R44, 4-[(2-Chlorobenzyl)(3-methylbut-2-en-1-yl)amino]-N-(pyridin-3-ylmethyl)benzamide] | 16.3 | > 10000
16 | CN(C)c1cccc2c(S(=O)(=O)Nc3ccc(NC(=O)NCc4cccnc4)cc3)cccc12 [Example R45, 5-(Dimethylamino)-N-(4-{[(pyridin-3-ylmethyl)carbamoyl]amino}phenyl) naphthalene-1-sulfonamide] | 4.8 | > 10000
17 | O=C(NCc1cccnc1)Nc1ccc(NS(=O)(=O)c2ccc3ccccc3c2)cc1 [Example R46, N-(4-{[(Pyridin-3-ylmethyl)carbamoyl]amino}phenyl) naphthalene-2-sulfonamide] | 64.8 | > 10000
18 | C#CCN(Cc1ccc2nc(C)n(C)c(=O)c2c1)c1ccc(C(=O)NCc2cccnc2)cc1 [Example R47, 4-{[(2,3-Dimethyl-4-oxo-3,4-dihydroquinazolin-6-yl)methyl](prop-2-yn-1-yl)amino}-N-(pyridin-3-ylmethyl)benzamide] | 33.5 | > 10000

Row | Structure (SMILES) | IC50 [1] [nM] | IC50 [2] [nM]
19 | O=C(NCc1cccnc1)c1ccc(OCc2ccccc2-c2cnc3ccccc3c2)cc1 [Example R48, N-(Pyridin-3-ylmethyl)-4-{[2-(quinolin-3-yl)benzyl]oxy}benzamide] | 38.8 | > 10000
20 | O=C(NCc1cccnc1)Nc1ccc(NS(=O)(=O)c2ccccc2-c2ccccc2)cc1 [Example R49, N-(4-{[(Pyridin-3-ylmethyl)carbamoyl]amino}phenyl)biphenyl-2-sulfonamide] | 4.9 | > 10000
21 | O=C(NCc1cccnc1)Nc1ccc(NS(=O)(=O)c2ccc([N+](=O)[O-])c(C(F)(F)F)c2)cc1 [Example R50, 4-Nitro-N-(4-{[(pyridin-3-ylmethyl)carbamoyl]amino}phenyl)-3-(trifluoromethyl)benzenesulfonamide] | 6.7 | > 10000
22 | CC(C)=CCN(Cc1cc2c(=O)n(C)c(C)nc2cc1Cl)c1ccc(C(=O)NCc2cccnc2)cc1 [Example R51, 4-{[(7-Chloro-2,3-dimethyl-4-oxo-3,4-dihydroquinazolin-6-yl)methyl](3-methylbut-2-en-1-yl)amino}-N-(pyridin-3-ylmethyl)benzamide] | 9.5 | > 10000
23 | CC(C)=CCN(Cc1cc2c(=O)n(C)cnc2cc1Cl)c1ccc(C(=O)NCc2cccnc2)cc1 [Example R52, 4-{[(7-Chloro-3-methyl-4-oxo-3,4-dihydroquinazolin-6-yl)methyl](3-methylbut-2-en-1-yl)amino}-N-(pyridin-3-ylmethyl)benzamide] | 7.3 | > 10000
24 | CCOC(=O)c1c[nH]c2ccc(C(=O)Nc3ccc(C(=O)NCc4cccnc4)cc3)cc2c1=O [Example R53, ethyl 4-oxo-6-({4-[(pyridin-3-ylmethyl)carbamoyl]phenyl}carbamoyl)-1,4-dihydroquinoline-3-carboxylate] | 6.8 | > 10000
25 | O=C(NCc1cccnc1)Nc1ccc(S(=O)(=O)Nc2ccccc2Cl)cc1 [Example R54, N-(2-chlorophenyl)-4-{[(pyridin-3-ylmethyl)carbamoyl]amino} benzenesulfonamide] | 71.5 | > 10000
26 | O=C(NCc1cccnc1)Nc1ccc(NC(=O)c2ccccc2-c2ccccc2)cc1 [Example R55, N-(4-{[(pyridin-3-ylmethyl)carbamoyl]amino}phenyl)biphenyl-2-carboxamide] | 48.8 | > 1000
27 | O=C(NCc1cccnc1)Nc1ccc(NS(=O)(=O)c2ccccc2Br)cc1F [Example R56, 2-bromo-N-(3-fluoro-4-{[(pyridin-3-ylmethyl)carbamoyl]amino}phenyl)benzene-sulfonamide] | 50 | > 1000
28 | O=C(NCc1cccnc1)Nc1ccc(NS(=O)(=O)c2cc(C(F)(F)F)ccc2Br)cc1 [Example R57, 2-Bromo-N-(4-{[(pyridin-3-ylmethyl)carbamoyl]amino}phenyl)-5-(trifluoromethyl)benzenesulfonamide] | 0.5 | > 10000
29 | O=C(NCc1cccnc1)Nc1ccc(C(=O)Nc2ccccc2-c2ccccc2)cc1 [Example R58, N-(biphenyl-2-yl)-4-{[(pyridin-3-ylmethyl)carbamoyl]amino}benzamide] | 1.6 | > 10000
30 | N#C/N=C(/NCc1ccc(NS(=O)(=O)c2ccccc2-c2ccccc2)cc1)Nc1ccncc1 [Example R59, N-(4-{[N″-cyano-N′-(pyridin-4-yl)carbamimidamido]methyl}phenyl) biphenyl-2-sulfonamide] | 0.6 | > 5000
31 | O=C(NCc1cccnc1)Nc1ccc(NS(=O)(=O)c2cc(C(F)(F)F)ccc2-c2ccccc2)cc1 [Example R60, N-(4-{[(pyridin-3-ylmethyl)carbamoyl]amino}phenyl)-4-(trifluoromethyl)biphenyl-2-sulfonamide] | 3.7 | > 5000
32 | O=C(NCc1cccnc1)Nc1ccc(NS(=O)(=O)c2c(F)cc(F)cc2Br)cc1 [Example R61, 2-bromo-4,6-difluoro-N-(4-{[(pyridin-3-ylmethyl)carbamoyl]amino}phenyl)benzene-sulfonamide] | 1.8 | > 1000
33 | O=C(NCc1cccnc1)Nc1ccc(NS(=O)(=O)c2ccc(F)cc2Br)cc1 [Example R62, 2-bromo-4-fluoro-N-(4-{[(pyridin-3-ylmethyl)carbamoyl]amino}phenyl)benzene-sulfonamide] | 12.9 | > 1000
34 | O=C(NCc1cccnc1)Nc1ccc(NS(=O)(=O)c2ccccc2-c2ccsc2)cc1 [Example R63, N-(4-{[(pyridin-3-ylmethyl)carbamoyl]amino}phenyl)-2-(thiophen-3-yl)benzenesulfonamide] | 1.6 | > 10000
35 | O=C(NCc1cccnc1)Nc1ccc(COc2ccccc2-c2ccccc2)cc1 [Example R64, 1-{4-[(Biphenyl-2-yloxy)methyl]phenyl}-3-(pyridin-3-ylmethyl)urea] | 0.2 | > 10000
36 | O=C(NCc1ccc(NS(=O)(=O)c2ccccc2-c2ccccc2)cc1)Nc1ccncc1 [Example R65, N-(4-{[(pyridin-4-ylcarbamoyl)amino]methyl}phenyl)biphenyl-2-sulfonamide] | 0.5 | > 1000
